Data as given in patent US20230280333A1, “FOREIGN SUBSTANCE INTRODUCTION CONSTRUCT AND USE THEREOF” (TOAGOSEI CO., LTD., priority 2022, published 2023).
Where no end group is shown, it is not given here.

What was measured:
[1] = test system: HeLa cells; experiment: Evaluation of the cell membrane permeability by flow cytometry; type: cell-based, human; conditions: for cell membrane permeability, conclusion in words / MFI compared between examples, in words: HeLa cells, 10 μM, 20 hours; for cell membrane permeability, conclusion in words: FAM-labelled constructs; for MFI: mean fluorescent intensity of HeLa cells, 10 μM in culture medium, 0.5% DMSO, 20 hours at 37° C., FL2 detector
Procedure: The cell membrane permeability of peptides 1 to 4 was analyzed using HeLa cells (an established cell line derived from human cervical cancer cells) as the eukaryotic cells.
HeLa cells were cultured on DMEM (Dulbecco's modified Eagle's medium (Cat. No. 043-30085, from FUJIFILM Wako Pure Chemical Corporation)) containing 10% FBS (fetal bovine serum), which is a general culture medium.
The HeLa cells attached to the culture plate were washed with PBS, a 0.25% trypsin/EDTA solution was then added, and incubation was carried out for 3 minutes at 37° C. After this incubation, the aforementioned DMEM containing 10% FBS was added and the trypsin was inactivated, and the cells were then sedimented by carrying out centrifugal separation for 5 minutes at 150×g. The supernatant produced by the centrifugal separation was removed, and the aforementioned DMEM containing 10% FBS was added to the sediment (cell pellet) to prepare a cell suspension containing approximately 2×10^5 cells/mL. The cells were seeded (approximately 2×10^5 cells/well) by the addition of 1 mL of this cell suspension to the wells of a commercial 6-well plate (Iwaki). In addition, the 2 mM sample solution 1 was diluted with the aforementioned DMEM containing 10% FBS to prepare a sample solution 1 in which the sample 1 concentration was 20 μM. 1 mL of this 20 sample solution 1 was added to a well (i.e., the concentration of sample 1 in the culture medium in the wells was brought to 10 μM and the DMSO concentration was brought to 0.5%). The cells were subsequently incubated for 20 hours at 37° C. under the condition of 5% CO2.
After this 20-hour incubation, the culture supernatant was removed from a well and the cells in the well were washed twice with 1 mL PBS. 200 μL of a 0.25% trypsin/EDTA solution was then added to the well and incubation was carried out for 3 minutes at 37° C. After this incubation, the trypsin was inactivated by the addition of 400 μL of the aforementioned DMEM containing 10% FBS to the well, and the cells were subsequently recovered by transferring the cell suspension in a well to a tube. The well was then washed by the further addition of 600 μL PBS to the well. The cells that had remained in the well were recovered to the tube by transferring the PBS in the well to the tube. Centrifugal separation was run on this tube for 5 minutes using conditions of 4° C. and 210×g. After the centrifugal separation, the supernatant was removed, the sediment (cell pellet) was suspended (washed) with 1 mL of PBS, and centrifugal separation was carried out using the same conditions as before. After this procedure had been performed twice, the supernatant was removed to obtain cells (cell pellet) that had been cultured on a sample 1-containing culture medium.
The cell permeability of sample 1 was analyzed using the resulting cells (cell pellet) and a flow cytometer. An On-Chip Flow Cytometer (On-chip Biotechnologies Co., Ltd.) was used for the flow cytometer.
For this analysis, the cell pellet obtained as described above was suspended in 50 μL PBS. To this suspension was added 50 μL of Sample Buffer 2× for use with the indicated flow cytometer to prepare a cell suspension for submission to analysis.
Gating was performed using this flow cytometer based on forward scatter (FSC) and side scatter (SSC); the gating was set for the cell population that was the target of the analysis; and the fluorescent intensity was measured for the cell population within this gating. The analysis was performed so the cell count for this cell population reached at least 10,000 or more. The FL2 fluorescence detector (optimal detection wavelength around 543 nm) on the indicated flow cytometer, which could detect the fluorescence wavelength of FAM, was used to measure the fluorescent intensity. […]

[2] = test system: cell membrane of eukaryotic cells; experiment: Cell membrane permeability stated by the inventors, no data or method shown; type: cell-based; conditions: detailed data not provided
[3] = test system: nucleolus; experiment: Nucleolar transferability stated in the description, no method shown; type: cell-based

Substance: KKRTLRKKKRKKRWPC (Ac-KKRTLRKKKRKKRWPC) [Peptide 2, carrier peptide fragment; synthesized with N-terminal α-amino group acetylated]
- cell membrane permeability, conclusion in words ([1]; listed as SEQ ID NO: 2): better cell membrane permeability than peptide composed of the amino acid sequence given by SEQ ID NO: 5

Substance: 5(6)-carboxyfluorescein [Example 5, reference compound]
- MFI [1]: 10.3

Substance: KKRTLRKSNRKKR (Ac-KKRTLRKSNRKKR) [Peptide 3, variant of LIM kinase 2 NoLS; synthesized with N-terminal acetylation]
- cell membrane permeability, statement in words [2]: higher cell membrane permeability than peptide comprising the amino acid sequence given by SEQ ID NO: 3

Substance: Ac-KKRTLRKKKRKKR-FAM [Example 4]
- MFI [1]: 24.3

Substance: KKRTLRKSNRKKRWPC (Ac-KKRTLRKSNRKKRWPC) [Peptide 1, carrier peptide fragment; synthesized with N-terminal α-amino group acetylated]
- cell membrane permeability, conclusion in words ([1]; listed as SEQ ID NO: 1): better cell membrane permeability than peptide composed of the amino acid sequence given by SEQ ID NO: 4

Substance: Ac-KKRTLRKKKRKKRWPC-FAM (Ac-KKRTLRKKKRKKRWPC-{FAM}) [Example 2, foreign substance introduction construct provided with peptide 2, FAM bonded to the C-terminal side]
- MFI compared between examples, in words [1]: significantly higher MFI than Example 4
- MFI [1]: 121

Substance: KKRTLRKKKRKKR (Ac-KKRTLRKKKRKKR) [Peptide 4, variant of LIM kinase 2 NoLS; synthesized with N-terminal acetylation]
- cell membrane permeability, statement in words [2]: higher cell membrane permeability than peptide comprising the amino acid sequence given by SEQ ID NO: 3
- nucleolar transferability, in words [3]: excellent nucleolar transferability

Substance: Ac-KKRTLRKSNRKKRWPC-FAM (Ac-KKRTLRKSNRKKRWPC-{FAM}) [Example 1, foreign substance introduction construct provided with peptide 1, FAM bonded to the C-terminal side]
- MFI compared between examples, in words [1]: highest among Example 1, Example 3, and Example 3′
- MFI [1]: 87.5

Substance: Ac-KKRTLRKSNRKKR-FAM [Example 3]
- MFI [1]: 12.4

Substance: FAM-KKRTLRKSNRKKR-CONH2 [Example 3′]
- MFI [1]: 62
